Assay results published in patent US11840686B2, “Modulation of prekallikrein (PKK) expression” (Ionis Pharmaceuticals, Inc., priority 2013, dated 2023).
Strand notation (5' to 3'): a small letter for the sugar, then the base; units joined by * are phosphorothioate-linked, units joined directly phosphodiester-linked; [ ] holds rarer units or linkages, { } end groups; capitals alone tell only the bases. e = 2'-O-(2-methoxyethyl) (MOE); [5mC] = 5-methylcytosine; d = 2'-deoxy (DNA)

System: human PKK mRNA
Experiment: Antisense inhibition of human PKK mRNA in HepaRG cells, 5,000 nM (Example 2)
Format: cell-based
Outline: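 Percent inhibition of PKK mRNA is reported relative to untreated cells, after adjustment for total RNA by RIBOGREEN. Gapmers of 16–20 nucleosides with 2′-MOE wings were delivered at 5,000 nM by electroporation into HepaRG cells and left for roughly 24 hours before RNA isolation.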

[1] = Table 13, human PKK mRNA in HepaRG cells, 5-10-5 gapmers
[2] = human PKK mRNA in HepaRG cells, 5-10-5 gapmers, Table 14
[3] = human PKK mRNA, HepaRG cells, 5-10-5 motif oligonucleotides targeting SEQ ID NO: 1 and 10

| Substance | % inhibition [2] | also measured |
| --- | --- | --- |
| 547570 (eA*eA*eG*e[5mC]*e[5mC]*d[5mC]*dT*dG*dT*dT*dT*dG*dG*dT*dT*eT*eT*eT*eA*eG; antisense) [compound 547570] | – | % inhibition [1]: 18% |
| 547571 (eA*eA*eA*eT*eG*dA*d[5mC]*dA*d[5mC]*d[5mC]*dA*dA*dA*dA*dT*eT*eG*eA*eG*eT; antisense) [compound 547571] | – | % inhibition [1]: 14% |
| 547572 (eA*eA*eA*eT*eG*dA*d[5mC]*dA*d[5mC]*d[5mC]*dA*dA*dA*dA*dT*eT*e[5mC]*eG*e[5mC]*eT; antisense) [compound 547572] | – | % inhibition [1]: 40% |
| 547573 (eT*eA*eA*eG*e[5mC]*dA*dA*dG*dG*d[5mC]*d[5mC]*dT*dA*dT*dG*eT*eG*eT*eG*eG; antisense) [compound 547573] | – | % inhibition [1]: 2% |
| 547574 (eA*e[5mC]*eA*e[5mC]*eG*d[5mC]*dA*d[5mC]*dA*dG*dG*dT*d[5mC]*d[5mC]*d[5mC]*eA*eG*eG*eG*e[5mC]; antisense) [compound 547574] | – | % inhibition [1]: 51% |
| 547576 (e[5mC]*eT*eA*eG*eT*dT*dT*d[5mC]*d[5mC]*dT*dA*dT*dA*dA*d[5mC]*eT*eG*e[5mC]*eT*eG; antisense) [compound 547576] | – | % inhibition [1]: 29% |
| 547577 (e[5mC]*eT*eA*eA*e[5mC]*dA*dG*dT*dA*dT*d[5mC]*dA*d[5mC]*dT*dG*eT*eA*e[5mC]*eT*eA; antisense) [compound 547577] | – | % inhibition [1]: 79% |
| 547578 (eG*eT*e[5mC]*e[5mC]*eT*dA*dT*dA*dA*d[5mC]*dT*d[5mC]*dT*dA*dA*e[5mC]*eA*eG*eT*eA; antisense) [compound 547578] | – | % inhibition [1]: 30% |
| 547579 (eT*eG*eT*e[5mC]*e[5mC]*dT*dA*dT*dA*dA*d[5mC]*dT*d[5mC]*dT*dA*eA*e[5mC]*eA*eG*eT; antisense) [compound 547579] | – | % inhibition [1]: 0% |
| 547580 (eA*eT*e[5mC]*eA*e[5mC]*dT*dG*dT*d[5mC]*d[5mC]*dT*dA*dT*dA*dA*e[5mC]*eT*e[5mC]*eT*eA; antisense) [compound 547580] | – | % inhibition [1]: 61% |
| 547581 (eA*eT*eA*eT*e[5mC]*dA*d[5mC]*dT*dG*dT*d[5mC]*d[5mC]*dT*dA*dT*eA*eA*e[5mC]*eT*e[5mC]; antisense) [compound 547581] | – | % inhibition [1]: 60% |
| 547582 (eT*eA*eT*eA*eT*d[5mC]*dA*d[5mC]*dT*dG*dT*d[5mC]*d[5mC]*dT*dA*eT*eA*eA*e[5mC]*eT; antisense) [compound 547582] | – | % inhibition [1]: 22% |
| 547583 (e[5mC]*eA*e[5mC]*eT*eG*dT*d[5mC]*d[5mC]*dT*dA*dT*dA*dT*d[5mC]*dA*e[5mC]*eT*eG*eT*e[5mC]; antisense) [compound 547583] | – | % inhibition [1]: 80% |
| 547586 (eT*eA*eT*eA*eA*d[5mC]*dA*dG*dT*dA*dT*d[5mC]*dA*d[5mC]*dT*eG*eT*e[5mC]*e[5mC]*eT; antisense) [compound 547586] | 82% | – |
| 547588 (eA*e[5mC]*eT*eA*eT*dA*dA*d[5mC]*dA*dG*dT*dA*dT*d[5mC]*dA*e[5mC]*eT*eG*eT*e[5mC]; antisense) [compound 547588] | 83% | – |
| 547589 (eT*eA*eA*e[5mC]*eT*dA*dT*dA*dA*d[5mC]*dA*dG*dT*dA*dT*e[5mC]*eA*e[5mC]*eT*eG; antisense) [compound 547589] | 36% | – |
| 547590 (eA*eT*eA*eA*e[5mC]*dT*dA*dT*dA*dA*d[5mC]*dA*dG*dT*dA*eT*e[5mC]*eA*e[5mC]*eT; antisense) [compound 547590] | 0% | – |
| 547591 (e[5mC]*e[5mC]*eT*eA*eT*dA*dA*d[5mC]*dT*dA*dT*dA*dA*d[5mC]*dA*eG*eT*eA*eT*e[5mC]; antisense) [compound 547591] | 23% | – |
| 547592 (eT*e[5mC]*e[5mC]*eT*eA*dT*dA*dA*d[5mC]*dT*dA*dT*dA*dA*d[5mC]*eA*eG*eT*eA*eT; antisense) [compound 547592] | 27% | – |
| 547593 (eT*eT*e[5mC]*e[5mC]*eT*dA*dT*dA*dA*d[5mC]*dT*dA*dT*dA*dA*e[5mC]*eA*eG*eT*eA; antisense) [compound 547593] | 29% | – |
| 547594 (eG*eT*eT*eT*e[5mC]*d[5mC]*dT*dA*dT*dA*dA*d[5mC]*dT*dA*dT*eA*eA*e[5mC]*eA*eG; antisense) [compound 547594] | 19% | – |
| 547595 (antisense eA*e[5mC]*eT*eA*eG*dT*dT*dT*d[5mC]*d[5mC]*dT*dA*dT*dA*dA*e[5mC]*eT*eA*eT*eA) [compound 547595] | 21% | – |
| 547596 (antisense eT*eA*e[5mC]*eT*eA*dG*dT*dT*dT*d[5mC]*d[5mC]*dT*dA*dT*dA*eA*e[5mC]*eT*eA*eT) [compound 547596] | 14% | – |
| 547597 (antisense e[5mC]*eA*eA*eT*eA*dT*d[5mC]*dA*d[5mC]*dT*dG*dT*d[5mC]*d[5mC]*dT*eA*eT*eA*eT*e[5mC]) [compound 547597] | 29% | – |

| Substance | % inhibition [2] | also measured |
| --- | --- | --- |
| 547598 (antisense eA*e[5mC]*eT*eA*eT*dA*dA*d[5mC]*dA*dA*dT*dA*dT*d[5mC]*dA*e[5mC]*eT*eG*eT*e[5mC]) [compound 547598] | 59% | – |
| 547599 (antisense eT*eT*e[5mC]*e[5mC]*eT*dA*dT*dA*dA*d[5mC]*dT*dA*dT*dA*dA*e[5mC]*eA*eA*eT*eA) [compound 547599] | 4% | – |
| 547600 (antisense eT*eT*eT*e[5mC]*e[5mC]*dT*dA*dT*dA*dA*d[5mC]*dT*dA*dT*dA*eA*e[5mC]*eA*eA*eT) [compound 547600] | 26% | – |
| 547601 (antisense eG*eT*eA*e[5mC]*e[5mC]*dT*dA*dT*dA*dA*d[5mC]*dT*d[5mC]*dT*dA*eA*e[5mC]*eA*eG*eT) [compound 547601] | 75% | – |
| 547603 (antisense eT*eA*eT*e[5mC]*eA*d[5mC]*dT*dG*dT*dA*d[5mC]*d[5mC]*dT*dA*dT*eA*eA*e[5mC]*eT*e[5mC]) [compound 547603] | 41% | – |
| 547604 (antisense eA*eT*eA*eT*e[5mC]*dA*d[5mC]*dT*dG*dT*dA*d[5mC]*d[5mC]*dT*dA*eT*eA*eA*e[5mC]*eT) [compound 547604] | 0% | – |
| 547605 (antisense eA*e[5mC]*eA*eA*eT*dA*dT*d[5mC]*dA*d[5mC]*dT*dG*dT*dA*d[5mC]*e[5mC]*eT*eA*eT*eA) [compound 547605] | 43% | – |
| 547606 (antisense eA*eA*e[5mC]*eA*eA*dT*dA*dT*d[5mC]*dA*d[5mC]*dT*dG*dT*dA*e[5mC]*e[5mC]*eT*eA*eT) [compound 547606] | 43% | – |
| 547607 (antisense eT*eA*eA*e[5mC]*eA*dA*dT*dA*dT*d[5mC]*dA*d[5mC]*dT*dG*dT*eA*e[5mC]*e[5mC]*eT*eA) [compound 547607] | 49% | – |
| 547608 (antisense eT*eA*eT*eA*eA*d[5mC]*dA*dA*dT*dA*dT*d[5mC]*dA*d[5mC]*dT*eG*eT*eA*e[5mC]*e[5mC]) [compound 547608] | 35% | – |
| 547609 (antisense e[5mC]*eT*eA*eT*eA*dA*d[5mC]*dA*dA*dT*dA*dT*d[5mC]*dA*d[5mC]*eT*eG*eT*eA*e[5mC]) [compound 547609] | 23% | – |
| 547610 (antisense eT*eG*eT*eA*eA*d[5mC]*dA*dG*dT*dA*dT*d[5mC]*dA*d[5mC]*dT*eG*eT*eA*e[5mC]*eT) [compound 547610] | 45% | – |
| 547611 (antisense e[5mC]*eT*eG*eT*eA*dA*d[5mC]*dA*dG*dT*dA*dT*d[5mC]*dA*d[5mC]*eT*eG*eT*eA*e[5mC]) [compound 547611] | 71% | – |
| 547612 (antisense e[5mC]*e[5mC]*eT*eG*eT*dA*dA*d[5mC]*dA*dG*dT*dA*dT*d[5mC]*dA*e[5mC]*eT*eG*eT*eA) [compound 547612] | 68% | – |
| 547613 (antisense e[5mC]*eT*eA*eT*eA*dT*d[5mC]*dA*d[5mC]*dT*dG*dT*dA*d[5mC]*d[5mC]*eT*eG*eT*eA*eA) [compound 547613] | 39% | – |
| 547614 (antisense e[5mC]*e[5mC]*eT*eA*eT*dA*dT*d[5mC]*dA*d[5mC]*dT*dG*dT*dA*d[5mC]*e[5mC]*eT*eG*eT*eA) [compound 547614] | 81% | – |
| 547619 (antisense eT*e[5mC]*e[5mC]*eT*eA*dT*dA*dA*d[5mC]*dA*dG*dT*dA*dT*d[5mC]*eA*e[5mC]*eT*eG*eT) [compound 547619] | 70% | – |
| 547620 (antisense eT*eT*e[5mC]*e[5mC]*eT*dA*dT*dA*dA*d[5mC]*dA*dG*dT*dA*dT*e[5mC]*eA*e[5mC]*eT*eG) [compound 547620] | 65% | – |
| 547621 (antisense eT*eA*e[5mC]*eT*eA*dG*dT*dT*dT*d[5mC]*d[5mC]*dT*dA*dT*dA*eA*e[5mC]*eA*eG*eT) [compound 547621] | 12% | – |
| 547623 (antisense eT*eG*eT*e[5mC]*eA*d[5mC]*dT*dG*dT*dA*d[5mC]*d[5mC]*dT*dA*dT*eA*eA*e[5mC]*eT*e[5mC]) [compound 547623] | 81% | – |
| 547624 (antisense eA*eT*eG*eT*e[5mC]*dA*d[5mC]*dT*dG*dT*dA*d[5mC]*d[5mC]*dT*dA*eT*eA*eA*e[5mC]*eT) [compound 547624] | 64% | – |
| 547625 (antisense e[5mC]*eA*eG*eT*eA*dT*d[5mC]*dA*d[5mC]*dT*dG*dT*d[5mC]*d[5mC]*dT*eA*eT*eG*eT*e[5mC]) [compound 547625] | – | % inhibition [3]: 79% |
| 547626 (antisense eA*e[5mC]*eA*eG*eT*dA*dT*d[5mC]*dA*d[5mC]*dT*dG*dT*d[5mC]*d[5mC]*eT*eA*eT*eG*eT) [compound 547626] | – | % inhibition [3]: 91% |
| 547627 (antisense eT*e[5mC]*eT*eA*e[5mC]*d[5mC]*dT*dA*dT*dA*dA*d[5mC]*dT*d[5mC]*dT*eA*eA*e[5mC]*eA*eG) [compound 547627] | – | % inhibition [3]: 71% |
